Consider two molecules from patent US8623909B2, “Prophylactic/therapeutic agents for lifestyle-related diseases” (priority 2008, dated 2014).

Assay [1] concerns PSA promoter. Nature of the assay: PSA promoter-luciferase activity in LNCaP cells (dual-luciferase reporter). Format: cell-based, human. On the procedure:
Plasmid pCMV-hAR was constructed based on a method previously reported by the inventors of the present invention (J. Biol. Chem., 282, 7329-7338). In addition, reporter plasmids consisting of PGL3-PSA (human) and PGL3-UCP-1 (mouse) were also constructed based on a method previously reported by the inventors of the present invention (Diabetes, 54, 1000-1008). Furthermore, pRL-SV40 was acquired commercially.
NIH-3T30-L1 mouse preadipocytes were cultured in Dulbecco's modified Eagle's medium (Sera Laboratories) containing 10% fetal calf serum. In addition, cells of human prostate cancer cell line LNCap were cultured in RPMI 1640 medium (Sigma) containing 10% fetal calf serum. Furthermore, these two types of cell lines were obtained from the American Type Culture Collection (Manassas).
The NIH-3T3-L1 cells of 2) above were co-transfected with pCMV-hAR, pRL-SV40 and PGL3-UCP-1 (mouse) in a 24-well plate using an Effectene Transfection Kit (Qiagen) and a Fugene HD Kit (Roche Diagnostics). In addition, the LNCaP cells of 2) above were similarly co-transfected with pCMV-hAR, pRL-SV40 and PGL3-PSA (human).
4) Measurement of Effect on PSA Promoter-Luciferase Activity in LNCaP Cells
The LNCaP cells co-transfected in 3) above were cultured for 24 hours in DMEM or RPMI 1640 containing 10% fetal calf serum treated with dextran-charcoal and a test compound (dissolved in a small amount of DMSO) 24 hours after transfection. Subsequently, the activities of firefly luciferase and Renilla luciferase were assayed in a 24-well plate using the Dual-Luciferase Reporter Assay System (Promega) in accordance with the protocol of Minilumat LB9507 (Berthold Technologies). Furthermore, the value of firefly luciferase activity were normalized based on the internal Renilla control, and were presented as relative luciferase activity.
(In a reporter assay the amount or activity of a reporter protein is the signal.)

Assay [2] has as its system ORX rats. Nature of the assay: Prostate weight in ORX rats (virilization effect). The following applies: for Prostate weight: 21 days, solvent 10.2, sham 132.5; for Change in prostate weight (in words): doses of 1 to 10 mg/kg body weight. The format is in vivo, rat. As to the method:
The virilization effect of compounds was studied by using the changes in prostate weight during administration of the compounds to ORX rats as an indicator of virilization effect.
(§1) 11-week-old, male Sprague-Dawley (SD) rats (320 to 340 g, purchased from Charles River Japan) were housed for 1 week in a room maintained at a light-dark cycle of 12 hours per day and controlled at a set temperature and humidity while allowing free access to a commercially available standard rodent diet and water.
(§2) After housing the animals, the animals were anesthetized with ether, and underwent bilateral orchiectomy (orchiectomized rats: ORX) or a sham treatment. After awaking from the anesthesia, the animals were assigned to test groups of 3 to 5 animals each. Starting on the day after surgery, the animals were subcutaneously injected once a day with an injection solution of the test compound (prepared by dissolving the test compound in a small amount of DMSO and diluting with olive oil for animal testing (consisting of 95% olive oil and 5% DMSO)) at the rate of 0.1 ml/100 g of body weight. After 21 days, the rats were sacrificed by exsanguination from the abdominal artery, the ventral prostates and anal levator muscle were excised and weighed followed by immersing in RNAlater (Nacalai Tesque) for extraction of RNA. In addition, soft tissue was removed from the right femur, and immersed in 75% ethanol followed by storage for subsequent measurement of the bone mineral density. Moreover, liver and visceral fat tissue were collected and immersed in RNAlater for RNA extraction.

In assay [3] the test system is PSA mRNA. Nature of the assay: PSA mRNA expression level in ORX rat prostates. The format is in vivo. The following applies: ORX rats; for PSA mRNA/GAPDH mRNA in prostates: 21 days, solvent 1.0, sham 114.4.
Description: as §2, with “Starting on the day after surgery, the animals were subcutaneously injected once a day with an injection solution of the test compound (prepared by dissolving the test compound in a small amount of DMSO and diluting with olive oil for animal testing (consisting of 95% olive oil and 5% DMSO)) at the rate of 0.1 ml/100 g of body weight.” left out
(§3) Total RNA in various tissues of the ORX rats was isolated using the RNeasy Mini Kit or RNeasy Fibrous Tissue Mini Kit (Qiagen). 1 μg of this total RNA was subjected to reverse transcription using the QuantiaTect Reverse Transcription Kit (Qiagen). Next, cDNA was subjected to real-time PCR analysis using LightCycler (Roche Diagnostics) and each of the transcription products was quantified. Furthermore, PCR was carried out in 20 μl of a reaction mixture under the following conditions using SYBR Premix Ex Taq (Takara Biotechnology): 50 cycles consisting of denaturation for 5 seconds at 95° C., annealing for 20 seconds at 60° C. and elongation for 25 seconds at 72° C. In addition, glyceraldehyde-3-phosphate dehydrogenase (GAPDH) mRNA was simultaneously amplified as an internal standard, and the real-time PCR value of each transcription product were calculated as a relative value based on GAPDH.
The PSA mRNA expression levels in the prostates of the ORX rats obtained in the aforementioned section (4)-1) were measured according to the method of section (4)-3).

Assay [4] deals with ORX rats. Nature of the assay: Vertebral bone mineral density in ORX rats. Format: in vivo, rat. To be noted: for Vertebral BMD: solvent 762.7, sham 770.8. As to the method:
as §1, §2
The anabolic effect of compounds was studied by using as indicators changes in anal levator muscle weight and bone mineral density (BMD) of the femur and vertebra in the ORX rats treated in the aforementioned section (4)-1).
BMD value of epiphyseal cancellous bone of the femur and vertebra of ORX rats treated in the aforementioned section (4)-1) were measured using Scan Xmate-A100S (Comscantecno).

Assay [5] deals with ORX rats. In words: Plasma triglyceride level in ORX rats. To be noted: for Plasma triglyceride concentration: solvent 130.7, sham 236.5; for Effect on triglyceride levels (in words): 1 and 10 mg/Kg. The format is in vivo, rat.
Description: as §2, with “Starting on the day after surgery, the animals were subcutaneously injected once a day with an injection solution of the test compound (prepared by dissolving the test compound in a small amount of DMSO and diluting with olive oil for animal testing (consisting of 95% olive oil and 5% DMSO)) at the rate of 0.1 ml/100 g of body weight.” left out
(§4) Plasma triglyceride and cholesterol levels were measured to characterize the metabolic profiles of ORX rats treated in the aforementioned section (4)-1).

For assay [6], the system named is ORX rats. In words: Plasma cholesterol level in ORX rats. Format: in vivo, rat. The following applies: for Plasma cholesterol concentration: solvent 78.0, sham 64.8; for Effect on cholesterol levels (in words): 1 and 10 mg/Kg.
Description: as §2, with “Starting on the day after surgery, the animals were subcutaneously injected once a day with an injection solution of the test compound (prepared by dissolving the test compound in a small amount of DMSO and diluting with olive oil for animal testing (consisting of 95% olive oil and 5% DMSO)) at the rate of 0.1 ml/100 g of body weight.” left out
as §4

Assay [7] has as its system IRS-2 mRNA. In words: IRS-2 mRNA level in liver of ORX rats. The format is in vivo, rat. The following applies: for IRS-2 mRNA/GAPDH mRNA level in rat liver: solvent 4.8, sham 1.0.
Description: as §2, with “Starting on the day after surgery, the animals were subcutaneously injected once a day with an injection solution of the test compound (prepared by dissolving the test compound in a small amount of DMSO and diluting with olive oil for animal testing (consisting of 95% olive oil and 5% DMSO)) at the rate of 0.1 ml/100 g of body weight.” left out
as §3
In addition, mRNA levels of insulin receptor substrate 2 (IRS-2) in the liver were also measured.

Assay [8] deals with UCP-1 mRNA. In words: UCP-1 mRNA level in visceral fat of ORX rats. The format is in vivo, rat. To be noted: for UCP-1 mRNA/GAPDH mRNA level in rat visceral fat: solvent 1.0, sham 1.0. As to the method: as §1, §2, §3
Thus, UCP-1 mRNA levels in rat visceral fat were also measured for the purpose of confirmation.

Marks after values point to notes of the source that are not given here.

As to `CC(=O)[C@H]1CCC2C3CCc4c(C)cccc4C3CC[C@@]21C` (stereo partly shown) [Compound of formula (Ia)], in assay [1] (10^−5M, 24 hours, control (DMSO) 1.0), the “Value of luciferase transcription activity (PSA promoter, relative luciferase activity)” value worked out at 1.3. Moreover, the Prostate weight in assay [2] (1 mg/Kg s.c. once a day) is on record as 11.1** mg/100 g of body weight; in assay [2] (10 mg/Kg s.c. once a day), 13.3** mg/100 g of body weight. In addition, the “Change in prostate weight (in words)” value in assay [2] was “did not increase”. Also, the “PSA mRNA/GAPDH mRNA in prostates” value in assay [3] (1 mg/Kg s.c. once a day) is 1.0**; in assay [3] (10 mg/Kg s.c. once a day) it was 1.2**. For the same molecule, the “Change in prostate PSA mRNA levels (in words)” value in assay [3] (1 and 10 mg/Kg) was “no changes observed”. In addition, the figures for the “Vertebral BMD” value in assay [4] (1 mg/Kg), in assay [4] (10 mg/Kg) and in assay [4] (30 mg/Kg) were 769.5 mg/mL, 770.3 mg/mL and 775.1 mg/mL, respectively. Moreover, the results for the Plasma triglyceride concentration in assay [5] (1 mg/Kg) and in assay [5] (10 mg/Kg) were 41.3** mg/dL and 39.3** mg/dL, respectively. In assay [5], the “Effect on triglyceride levels (in words)” value is given as “lowered triglyceride levels considerably”. In addition, the Plasma cholesterol concentration in assay [6] (1 mg/Kg) is listed as 66.0 mg/dL; in assay [6] (10 mg/Kg), 71.5 mg/dL. In addition, the “Effect on cholesterol levels (in words)” value in assay [6] was “did not have an effect on cholesterol levels”. Besides, the “Effect on liver IRS-2 mRNA level (in words)” value in assay [7] is “increased”. In addition, the “IRS-2 mRNA/GAPDH mRNA level in rat liver” value is listed as 10.6** in assay [7] (1 mg/Kg) and 8.8* in assay [7] (10 mg/Kg). Further, the “Effect on visceral fat UCP-1 mRNA levels (in words)” value in assay [8] is on record as “this increase was not significant”. Moreover, the “UCP-1 mRNA/GAPDH mRNA level in rat visceral fat” value in assay [8] (1 mg/Kg) came out at 1.7; in assay [8] (10 mg/Kg), 1.5.
For `C[C@]12CCC(=O)C[C@@H]1CC[C@@H]1[C@@H]2CC[C@]2(C)[C@@H](O)CC[C@@H]12` [Dihydrotestosterone, 5α-dihydrotestosterone, reference compound], in assay [1] (10^−7 M or 10^−8 M), the “PSA promoter activity stimulation” value is “roughly 9 fold”. Also, the Prostate weight in assay [2] (1 mg/Kg s.c. once a day) was 168.6**^,## mg/100 g of body weight; in assay [2] (10 mg/Kg s.c. once a day) it was 216.9*^,## mg/100 g of body weight. For the same molecule, the “Change in prostate weight (in words)” value in assay [2] was “increased dose-dependently”. For the same molecule, the “PSA mRNA/GAPDH mRNA in prostates” value in assay [3] (1 mg/Kg s.c. once a day) was 211.4**^,##; in assay [3] (10 mg/Kg s.c. once a day), 209.8**^,##. Further, the “Increase of prostate PSA mRNA level in comparison with the sham treatment group” value in assay [3] (1 and 10 mg/Kg) was “about 1.8 fold”. The “Vertebral BMD” value was 768.4 mg/mL in assay [4] (1 mg/Kg) and 763.2 mg/mL in assay [4] (10 mg/Kg). In addition, the “Effect on vertebral BMD (in words)” value in assay [4] (1 and 10 mg/Kg) was “did not have an effect on vertebral BMD”. Also, in assay [5], the “Effect on triglyceride levels (in words)” value is “raised triglyceride levels”. For the same molecule, in assay [6], the “Effect on cholesterol levels (in words)” value is “lowered cholesterol levels”. For the same molecule, the “Effect on liver IRS-2 mRNA level (in words)” value in assay [7] is reported as “decreased”. The “IRS-2 mRNA/GAPDH mRNA level in rat liver” value in assay [7] (1 mg/Kg) stood at 5.1; in assay [7] (10 mg/Kg) it was 0.8. In addition, in assay [8], the “Effect on visceral fat UCP-1 mRNA levels (in words)” value was “had hardly any effect on UCP-1 mRNA levels”. Also, the “UCP-1 mRNA/GAPDH mRNA level in rat visceral fat” value in assay [8] (1 mg/Kg) is 0.8; in assay [8] (10 mg/Kg), 0.9.
